# Strand notation (5' to 3'): a small letter for the sugar, then the base; units joined by * are phosphorothioate-linked, units joined directly phosphodiester-linked; [ ] holds rarer units or linkages, { } end groups; capitals alone tell only the bases. k = constrained ethyl (cEt); [5mC] = 5-methylcytosine; d = 2'-deoxy (DNA)
# Tested on: Yap1 mRNA
# Test: Dose-dependent inhibition of human Yap1 in A-431 cells (Example 7, 10,000 cells per well, RTS36584)
# Format: cell-based
# Details: free uptake
# Method: Modified oligonucleotides described in the studies above were tested at various doses in A-431 cells. Cultured A-431 cells at a density of 10,000 cells per well were treated using free uptake with modified oligonucleotides diluted to concentrations described in the tables below. After approximately 48 hours, Yap1 mRNA levels were measured as previously described using the Human Yap1 primer-probe set RTS36584. Yap1 mRNA levels were normalized to total RNA content, as measured by RIBOGREEN®. Results are presented in the tables below as percent control of the amount of Yap1 mRNA relative to untreated control cells (% UTC). IC50s were calculated using a linear regression on a log/linear plot of the data in excel.
# [1] = Table 59, 15.6 nM, A-431 cells 10,000 cells per well, 48 hours
# [2] = Table 59, 62.5 nM, A-431 cells 10,000 cells per well, 48 hours
# [3] = Table 59, 4000.00 nM, A-431 cells 10,000 cells per well, 48 hours
# [4] = Table 59, A-431 cells 10,000 cells per well
# [5] = Table 56, 15.6 nM, A-431 cells 10,000 cells per well, 48 hours
# [6] = Table 56, 62.5 nM, A-431 cells 10,000 cells per well, 48 hours
# [7] = Table 56, 4000.00 nM, A-431 cells 10,000 cells per well, 48 hours
# [8] = Table 56, A-431 cells 10,000 cells per well
# [9] = 15.6 nM, A-431 cells, 10,000 cells per well, approximately 48 hours
# [10] = 62.5 nM, A-431 cells, 10,000 cells per well, approximately 48 hours
# [11] = 4000.00 nM, A-431 cells, 10,000 cells per well, approximately 48 hours
# [12] = A-431 cells, approximately 48 hours, linear regression on log/linear plot
# [13] = Table 58, 15.6 nM, A-431 cells 10,000 cells per well, 48 hours
# [14] = Table 58, 62.5 nM, A-431 cells 10,000 cells per well, 48 hours
# [15] = Table 58, 4000.00 nM, A-431 cells 10,000 cells per well, 48 hours
# [16] = Table 58, A-431 cells 10,000 cells per well
# [17] = Table 57, 15.6 nM, A-431 cells 10,000 cells per well, 48 hours
# [18] = Table 57, 62.5 nM, A-431 cells 10,000 cells per well, 48 hours
# [19] = Table 57, 4000.00 nM, A-431 cells 10,000 cells per well, 48 hours
# [20] = Table 57, A-431 cells 10,000 cells per well
# [21] = Table 61, 15.6 nM, A-431 cells 10,000 cells per well, 48 hours
# [22] = Table 61, 62.5 nM, A-431 cells 10,000 cells per well, 48 hours
# [23] = Table 61, 4000.00 nM, A-431 cells 10,000 cells per well, 48 hours
# [24] = Table 61, A-431 cells 10,000 cells per well
# [25] = Table 60, 15.6 nM, A-431 cells 10,000 cells per well, 48 hours
# [26] = Table 60, 62.5 nM, A-431 cells 10,000 cells per well, 48 hours
# [27] = Table 60, 4000.00 nM, A-431 cells 10,000 cells per well, 48 hours
# [28] = Table 60, A-431 cells 10,000 cells per well
substance,measurement,setting,value
958668 (kG*kT*kG*dA*dT*d[5mC]*dT*dG*dT*dG*dA*dG*dA*kG*kG*kT; antisense) [compound 958668],"Yap1 mRNA, % UTC",[1],81 % UTC
same,"Yap1 mRNA, % UTC",[2],38 % UTC
same,"Yap1 mRNA, % UTC",[3],5 % UTC
same,IC50,[4],100 nM
958496 (k[5mC]*k[5mC]*kT*dT*dA*dT*dA*dA*dG*d[5mC]*dT*d[5mC]*d[5mC]*kT*kA*kA; antisense) [compound 958496],"Yap1 mRNA, % UTC",[5],86 % UTC
same,"Yap1 mRNA, % UTC",[6],53 % UTC
same,"Yap1 mRNA, % UTC",[7],9 % UTC
same,IC50,[8],90 nM
958525 (kA*kT*kG*dA*dA*dG*dG*dT*dA*dA*dA*d[5mC]*d[5mC]*kA*k[5mC]*kT; antisense) [compound 958525],"Yap1 mRNA, % UTC",[9],94 % UTC
same,"Yap1 mRNA, % UTC",[10],57 % UTC
same,"Yap1 mRNA, % UTC",[11],8 % UTC
same,IC50,[12],100 nM
958575 (kG*kG*k[5mC]*dT*dA*d[5mC]*dT*dG*dG*d[5mC]*dA*dA*dA*kT*kT*kA; antisense) [compound 958575],"Yap1 mRNA, % UTC",[9],89 % UTC
same,"Yap1 mRNA, % UTC",[10],58 % UTC
same,"Yap1 mRNA, % UTC",[11],20 % UTC
same,IC50,[12],100 nM
958477 (kA*kT*kT*dT*d[5mC]*d[5mC]*dG*dG*dT*dG*d[5mC]*dA*dT*kG*kT*kG; antisense) [compound 958477],"Yap1 mRNA, % UTC",[13],83 % UTC
same,"Yap1 mRNA, % UTC",[14],37 % UTC
same,"Yap1 mRNA, % UTC",[15],6 % UTC
same,IC50,[16],100 nM
958361 (antisense kG*k[5mC]*kT*d[5mC]*dG*dA*dA*d[5mC]*dA*dT*dG*d[5mC]*dT*kG*kT*kG) [compound 958361],"Yap1 mRNA, % UTC",[5],100 % UTC
same,"Yap1 mRNA, % UTC",[6],80 % UTC
same,"Yap1 mRNA, % UTC",[7],22 % UTC
same,IC50,[8],220 nM
958466 (kG*kT*k[5mC]*dA*dT*dT*dA*dA*dG*dG*dA*dT*dG*kT*k[5mC]*kA; antisense) [compound 958466],"Yap1 mRNA, % UTC",[17],84 % UTC
same,"Yap1 mRNA, % UTC",[18],81 % UTC
same,"Yap1 mRNA, % UTC",[19],30 % UTC
same,IC50,[20],300 nM
958730 (k[5mC]*kT*k[5mC]*dT*dG*dT*d[5mC]*dA*dG*dT*dT*dA*dT*k[5mC]*k[5mC]*kT; antisense) [compound 958730],"Yap1 mRNA, % UTC",[9],88 % UTC
same,"Yap1 mRNA, % UTC",[10],48 % UTC
same,"Yap1 mRNA, % UTC",[11],7 % UTC
same,IC50,[12],100 nM
958785 (kG*k[5mC]*kA*dA*dT*d[5mC]*d[5mC]*dA*d[5mC]*dA*dA*dT*dT*k[5mC]*k[5mC]*kA; antisense) [compound 958785],"Yap1 mRNA, % UTC",[9],78 % UTC
same,"Yap1 mRNA, % UTC",[10],52 % UTC
same,"Yap1 mRNA, % UTC",[11],6 % UTC
same,IC50,[12],100 nM
958507 (kG*kA*kG*d[5mC]*dA*dG*dA*dT*dA*dA*dT*d[5mC]*dG*kA*kG*kA; antisense) [compound 958507],"Yap1 mRNA, % UTC",[1],93 % UTC
same,"Yap1 mRNA, % UTC",[2],69 % UTC
same,"Yap1 mRNA, % UTC",[3],19 % UTC
same,IC50,[4],200 nM
958457 (antisense kG*kT*k[5mC]*dG*dA*dA*dG*dA*dT*dG*d[5mC]*dT*dG*kA*kG*k[5mC]) [compound 958457],"Yap1 mRNA, % UTC",[13],91 % UTC
same,"Yap1 mRNA, % UTC",[14],50 % UTC
same,"Yap1 mRNA, % UTC",[15],13 % UTC
same,IC50,[16],100 nM
958531 (kG*kT*kA*dG*dG*dA*dG*d[5mC]*dA*dA*dG*dT*d[5mC]*kT*kT*kG; antisense) [compound 958531],"Yap1 mRNA, % UTC",[17],92 % UTC
same,"Yap1 mRNA, % UTC",[18],63 % UTC
same,"Yap1 mRNA, % UTC",[19],13 % UTC
same,IC50,[20],100 nM
958484 (kG*k[5mC]*kA*dG*d[5mC]*dA*dA*dT*dG*dG*dA*d[5mC]*dA*kA*kG*kG; antisense) [compound 958484],"Yap1 mRNA, % UTC",[21],77 % UTC
same,"Yap1 mRNA, % UTC",[22],38 % UTC
same,"Yap1 mRNA, % UTC",[23],4 % UTC
same,IC50,[24],50 nM
958572 (kA*kT*kT*dA*dT*dA*dG*dG*d[5mC]*dA*d[5mC]*dT*d[5mC]*k[5mC]*kT*kT; antisense) [compound 958572],"Yap1 mRNA, % UTC",[1],83 % UTC
same,"Yap1 mRNA, % UTC",[2],77 % UTC
same,"Yap1 mRNA, % UTC",[3],22 % UTC
same,IC50,[4],200 nM
958549 (kT*kG*kT*dA*dG*dA*d[5mC]*dA*d[5mC]*dA*dT*dA*d[5mC]*kT*k[5mC]*kT; antisense) [compound 958549],"Yap1 mRNA, % UTC",[9],98 % UTC
same,"Yap1 mRNA, % UTC",[10],78 % UTC
same,"Yap1 mRNA, % UTC",[11],28 % UTC
same,IC50,[12],300 nM
958758 (k[5mC]*kT*kA*dT*dT*d[5mC]*dA*dG*dT*dG*dA*dT*d[5mC]*kT*kG*k[5mC]; antisense) [compound 958758],"Yap1 mRNA, % UTC",[1],83 % UTC
same,"Yap1 mRNA, % UTC",[2],66 % UTC
same,"Yap1 mRNA, % UTC",[3],12 % UTC
same,IC50,[4],100 nM
958599 (kT*kT*k[5mC]*dA*dA*dG*dA*dA*dT*dA*d[5mC]*d[5mC]*d[5mC]*kA*kG*kT; antisense) [compound 958599],"Yap1 mRNA, % UTC",[21],100 % UTC
same,"Yap1 mRNA, % UTC",[22],74 % UTC
same,"Yap1 mRNA, % UTC",[23],16 % UTC
same,IC50,[24],200 nM
958490 (kG*kT*kG*dA*d[5mC]*dA*dT*dG*dA*dA*dG*d[5mC]*dA*kT*k[5mC]*kT; antisense) [compound 958490],"Yap1 mRNA, % UTC",[9],81 % UTC
same,"Yap1 mRNA, % UTC",[10],54 % UTC
same,"Yap1 mRNA, % UTC",[11],13 % UTC
same,IC50,[12],100 nM
958753 (kT*kG*kT*dA*dT*dA*dT*dG*d[5mC]*d[5mC]*dG*dT*dT*k[5mC]*k[5mC]*k[5mC]; antisense) [compound 958753],"Yap1 mRNA, % UTC",[25],72 % UTC
same,"Yap1 mRNA, % UTC",[26],48 % UTC
same,"Yap1 mRNA, % UTC",[27],11 % UTC
same,IC50,[28],100 nM
958577 (kT*k[5mC]*kT*dG*dT*dG*dG*d[5mC]*dT*dA*d[5mC]*dT*dG*kG*k[5mC]*kA; antisense) [compound 958577],"Yap1 mRNA, % UTC",[13],81 % UTC
same,"Yap1 mRNA, % UTC",[14],51 % UTC
same,"Yap1 mRNA, % UTC",[15],11 % UTC
same,IC50,[16],100 nM
958588 (kG*kT*kG*dT*dA*d[5mC]*dT*dT*dA*dG*dG*dT*dG*kA*k[5mC]*kT; antisense) [compound 958588],"Yap1 mRNA, % UTC",[25],93 % UTC
same,"Yap1 mRNA, % UTC",[26],73 % UTC
same,"Yap1 mRNA, % UTC",[27],27 % UTC
same,IC50,[28],200 nM
958807 (kT*k[5mC]*kA*dT*dT*dG*dT*dA*dG*dT*d[5mC]*dT*dG*kT*k[5mC]*kT; antisense) [compound 958807],"Yap1 mRNA, % UTC",[13],92 % UTC
same,"Yap1 mRNA, % UTC",[14],65 % UTC
same,"Yap1 mRNA, % UTC",[15],10 % UTC
same,IC50,[16],100 nM
958535 (kG*kG*kG*dT*d[5mC]*dA*dA*dT*dT*dT*dT*d[5mC]*dA*kG*k[5mC]*kA; antisense) [compound 958535],"Yap1 mRNA, % UTC",[9],98 % UTC
same,"Yap1 mRNA, % UTC",[10],64 % UTC
same,"Yap1 mRNA, % UTC",[11],19 % UTC
same,IC50,[12],200 nM
958737 (kG*kG*kA*dA*dT*dA*d[5mC]*dA*dA*dG*d[5mC]*d[5mC]*d[5mC]*kG*kA*kG; antisense) [compound 958737],"Yap1 mRNA, % UTC",[1],104 % UTC
same,"Yap1 mRNA, % UTC",[2],92 % UTC
same,"Yap1 mRNA, % UTC",[3],29 % UTC
same,IC50,[4],400 nM

# From US11214803B2, “Modulators of YAP1 expression” (Ionis Pharmaceuticals, Inc., priority 2019, dated 2022)
